Laboratory results published in publication PMC5934995 (Biochemistry, 2017).
Converted amounts (≈) assume the structure as drawn. Where two headings read alike, the source gives them in different places. Marks after values point to notes of the source that are not given here.

Tests used:
[1] = test system: E. coli ATCC 25922; experiment: Broth microdilution MIC in chemically defined minimal medium; assay type: cell-based; conditions: for phenotype induced by treatment (L-Gln dependence of growth): E. coli in minimal medium with or without L-Gln
[2] = test system: E. coli ATCC 29522; experiment: Growth curves; assay type: cell-based
[3] = target: T1, E. coli GS (Escherichia coli, UniProt P0A9C5); conditions: cited from earlier work
[4] = test system: human GS; conditions: cited from earlier work
[5] = target: recombinant N-His6-tagged GS from E. coli (Escherichia coli, UniProt P0A9C5); experiment: biochemical; assay type: biochemical; conditions: for kinact: pH 7.4
[6] = test system: unadenylylated E. coli GS; conditions: read-out: KI (literature); cited from earlier work
[7] = target: recombinant N-His6-tagged GS from S. aureus (Staphylococcus aureus, UniProt P0A040); experiment: biochemical; assay type: biochemical; conditions: for kinact: pH 7.4
[8] = target: recombinant N-His6-tagged GS from Homo sapiens (Homo sapiens, UniProt P15104); experiment: biochemical; assay type: biochemical; conditions: for kinact: pH 7.4
recombinant N-His6-tagged GS from Homo sapiens, sequence (P15104 whole entry): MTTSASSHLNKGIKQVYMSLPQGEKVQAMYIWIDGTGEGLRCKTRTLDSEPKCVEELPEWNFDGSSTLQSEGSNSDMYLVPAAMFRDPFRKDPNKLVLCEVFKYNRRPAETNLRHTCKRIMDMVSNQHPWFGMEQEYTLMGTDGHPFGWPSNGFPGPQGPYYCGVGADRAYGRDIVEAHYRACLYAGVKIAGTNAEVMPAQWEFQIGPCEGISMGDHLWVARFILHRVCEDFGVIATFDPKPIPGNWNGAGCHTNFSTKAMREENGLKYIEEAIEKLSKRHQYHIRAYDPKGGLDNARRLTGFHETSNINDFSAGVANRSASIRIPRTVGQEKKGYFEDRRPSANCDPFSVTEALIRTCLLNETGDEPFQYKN

[9] = target: T1, E. coli GS; conditions: cited from earlier work; remark: listed apart in the source
[10] = target: recombinant human GS (Homo sapiens, UniProt P15104); assay type: biochemical; conditions: apparent, saturating ATP (10 mM) and NH3 (10 mM)
recombinant human GS, sequence (P15104 whole entry): as above

[11] = target: T1, E. coli GS; assay type: biochemical; conditions: apparent, saturating ATP (10 mM) and NH3 (10 mM)
[12] = test system: GS isolated from Leishmania donovani; conditions: read-out: apparent Km for L-Glu (literature); cited from earlier work
[13] = target: recombinant S. aureus GS (Staphylococcus aureus, UniProt P0A040); assay type: biochemical; conditions: apparent, saturating ATP (10 mM) and NH3 (10 mM)
[14] = test system: M. tuberculosis; conditions: in vivo, cited from earlier work
[15] = test system: GS; conditions: relative to Glufos; cited from earlier work
[16] = 23 °C, pH 7.2 phosphate buffer; isomerization to TδL-Thr; cited from earlier work
[17] = substrate: N[C@@H](CCC(=O)O)C(=O)O; experiment: purified protein, by the assay type; assay type: biochemical; conditions: pH 7.4
[18] = substrate: Nc1ncnc2c1ncn2[C@@H]1O[C@H](COP(=O)(O)OP(=O)(O)OP(=O)(O)O)[C@@H](O)[C@H]1O; experiment: purified protein, by the assay type; conditions: other: apparent; saturating L-Glu (50 mM) and NH3 (10 mM); pH 7.4; 37.0 °C
[19] = end point, minimal medium, no amino acid supplement, 37 °C, 18–24 h
[20] = minimal medium supplemented with 5 mM L-Glu
[21] = read-out: apparent Km for ATP (literature)
[22] = apparent, Kitz–Wilson fit, 37 °C

C[C@H](N)C(=O)N[C@@H](C)C(=O)NC(CCP(C)(=O)O)C(=O)O (stereo partly drawn) [AAG, L-Ala-L-Ala-Glufos]
phenotype induced by treatment (L-Gln dependence of growth) [1]: glutamine auxotrophy
MIC90 [1, 19]: 0.0005 mM (≈ 0.162 µg/mL)
MIC90 [1, 20]: 0.001 mM (≈ 0.323 µg/mL)
time for which growth was fully suppressed ([2]; 2 μM): > 66 h

Nc1ncnc2c1ncn2[C@@H]1O[C@H](COP(=O)(O)OP(=O)(O)OP(=O)(O)O)[C@@H](O)[C@H]1O [ATP, adenosine triphosphate]
Km [3, 21]: 0.1 to 0.7 mM
Km [4, 21]: 1.8 to 2.8 mM

CP(=O)(O)CCC(N)C(=O)O (centres unmarked) [Glufos, glufosinate]
kinact/KI [5]: 11700 M⁻¹ s⁻¹
difference in inhibitor efficiency (kinact/KI) for E. coli and human GS ([5]; E. coli GS versus human GS): 120 fold
kinact [5]: 0.7 min⁻¹
Ki [6]: 1000 nM
kinact/KI [7]: 500 M⁻¹ s⁻¹
kinact [7]: 0.00667 s⁻¹
kinact/KI [8]: 100 M⁻¹ s⁻¹
kinact [8]: 0.9 min⁻¹

C[P@](=O)(CC[C@H](N)C(=O)O)OP(=O)(O)O [Glufos-Pi, phospho-glufosinate]
number of GS active sites occupied (of 12) [9]: 11

N[C@@H](CCC(=O)O)C(=O)O [L-Glu]
Km ([3]; read-out: apparent Km for L-Glu (literature)): 0.8 to 6.6 mM
kcat (L-Glu) [10]: 85 ± 5 s⁻¹
Km ([10]; read-out: Km (L-Glu)): 37 ± 5 mM
kcat (L-Glu) [11]: 131.7 ± 5 s⁻¹
Km ([11]; read-out: Km (L-Glu)): 7.2 ± 0.8 mM
Km [12]: 26.3 ± 0.4 mM
Km ([4]; read-out: L-Glu Km (literature), recombinant human enzyme expressed in E. coli, colorimetric assay): 3.5 ± 0.7 mM
kcat (L-Glu) [13]: 23.33 ± 1.67 s⁻¹
Km ([13]; read-out: Km (L-Glu)): 52 ± 7 mM

CS(=N)(=O)CC[C@H](N)C(=O)O (some centres unmarked) [MetSox, Methionine sulfoximine]
difference in inhibitor efficiency (kinact/KI) for E. coli and human GS [5]: 250 fold
kinact/KI [5]: 100 ± 40 min^−1μM^−1 ×10^3
kinact [5]: 0.4 ± 0.1 min⁻¹
tolerability ([14]; guinea pig): well tolerated
efficacy in guinea pig lung infection model [14]: effective and synergistic with isoniazid
Ki [6]: 2000 nM
kinact/KI ([7]; apparent inhibitor efficiency): 28 ± 9 min^−1μM^−1 ×10^3
kinact/KI ([8]; apparent inhibitor efficiency): 0.4 ± 0.3 min^−1μM^−1 ×10^3
kinact [8, 22]: 0.4 ± 0.2 min⁻¹

CS(=O)(CCC(N)C(=O)O)=NP(=O)(O)O (centres unmarked) [MetSox-Pi, phospho-methionine sulfoximine]
active site occupancy [9]: ~ 80%

N[C@@H](CC[C@]1(O)CNC1=O)C(=O)O [TβL, Tabtoxinine-β-lactam]
kinact/KI (inhibitor efficiency) [5]: 180 ± 70 min^−1μM^−1
difference in inhibitor efficiency (kinact/KI) for E. coli and human GS ([5]; E. coli GS versus human GS): 90 fold
kinact/KI ([5]; apparent inhibitor efficiency): 180 ± 70 min^−1μM^−1 ×10^3
kinact [5, 22]: 0.3 ± 0.1 min⁻¹
recovery of GS activity after dialysis of inhibition complex ([5]; several days of dialysis at 4 °C and 37 °C): could not be recovered
kinact/KI (inhibitor efficiency) [7]: 8 ± 3 min^−1μM^−1
kinact/KI ([7]; apparent inhibitor efficiency): 8 ± 3 min^−1μM^−1 ×10^3
kinact [7, 22]: 0.0067 ± 0.0017 s⁻¹
kinact/KI (inhibitor efficiency) [8]: 2 ± 1 min^−1μM^−1
kinact/KI ([8]; apparent inhibitor efficiency): 2 ± 1 min^−1μM^−1 ×10^3
kinact [8, 22]: 0.3 ± 0.1 min⁻¹

C[C@H](NC(=O)[C@H](C)NC(=O)[C@@H](N)CCP(C)(=O)[O-])C(=O)O.[Na+] [bialaphos sodium salt, Glufos-L-Ala-L-Ala tripeptide, reference compound]
phenotype induced by treatment (L-Gln dependence of growth) [1]: confirmed

NC[C@H]1O[C@H](O[C@H]2[C@H](O)[C@@H](O[C@H]3O[C@H](CO)[C@@H](O)[C@H](N)[C@H]3O)[C@H](N)C[C@@H]2N)[C@H](O)[C@@H](O)[C@@H]1O [kanamycin, reference compound]
MIC ([1]; control antibiotic on every plate, minimal medium): 0.008 mM (≈ 3.88 µg/mL)

CP(=O)(O)C(O)CC(N)C(=O)O (centres unmarked) [γ-hydroxylated variant of Glufos]
increase of the rate of GS activation [15]: 50%

tabtoxin [TβL-Thr]
phenotype induced by treatment (L-Gln dependence of growth) [1]: glutamine auxotrophy
MIC90 [1, 19]: 0.0005 mM
MIC90 [1, 20]: 0.001 mM
isomerization half-life [16]: 37 h
growth curve with L-Gln supplementation ([2]; 2 μM, L-Gln supplementation 2.5 mM): matched the control
growth with L-Gln supplementation ([2]; 2 μM, medium supplemented with 0.1 mM L-Gln): recovered to near control levels
time after which growth started to recover ([2]; 2 μM, minimal medium): 26 h
time for which growth was suppressed ([2]; 100 μM): > 50 h

B1: E. coli GS (EC) (Escherichia coli K-12) (protein)
chain: SAEHVLTMLNEHEVKFVDLRFTDTKGKEQHVTIPAHQVNAEFFEEGKMFDGSSIGGWKGINESDMVLMPDASTAVIDPFFADSTLIIRCDILEPGTLQGYDRDPRSIAKRAEDYLRSTGIADTVLFGPEPEFFLFDDIRFGSSISGSHVAIDDIEGAWNSSTQYEGGNKGHRPAVKGGYFPVPPVDSAQDIRSEMCLVMEQMGLVVEAHHHEVATAGQNEVATRFNTMTKKADEIQIYKYVVHNVAHRFGKTATFMPKPMFGDNGSGMHCHMSLSKNGVNLFAGDKYAGLSEQALYYIGGVIKHAKAINALANPTTNSYKRLVPGYEAPVMLAYSARNRSASIRIPVVSSPKARRIEVRFPDPAANPYLCFAALLMAGLDGIKNKIHPGEAMDKNLYDLPPEEAKEIPQVAGSLEEALNELDLDREFLKAGGVFTDEAIDAYIALRREEDDRVRMTPHPVEFELYYSV
Km [17]: 7.2 ± 0.8 mM
kcat [17]: 132 ± 5 s⁻¹
kcat/Km [17]: 18300 ± 1670 M⁻¹ s⁻¹

B2: S. aureus GS (SA) (Staphylococcus aureus subsp. aureus N315) (protein)
chain: MPKRTFTKEDIRKFAEEENVRYLRLQFTDILGTIKNVEVPVSQLEKVLDNEMMFDGSSIEGFVRIEESDMYLHPDLDTWVIFPWTAGQGKVARLICDVYKTDGTPFEGDPRANLKRVLKEMEDLGFTDFNLGPEPEFFLFKLDEKGEPTLELNDDGGYFDLAPTDLGENCRRDIVLELEDMGFDIEASHHEVAPGQHEIDFKYADAVTACDNIQTFKLVVKTIARKHNLHATFMPKPLFGVNGSGMHFNVSLFKGKENAFFDPNTEMGLTETAYQFTAGVLKNARGFTAVCNPLVNSYKRLVPGYEAPCYIAWSGKNRSPLIRVPSSRGLSTRIEVRSVDPAANPYMALAAILEAGLDGIKNKLKVPEPVNQNIYEMNREEREAVGIQDLPSTLYTALKAMRENEVIKKALGNHIYNQFINSKSIEWDYYRTQVSEWERDQYMKQY
Km [17]: 52 ± 7 mM
kcat [17]: 23.3 ± 1.67 s⁻¹
kcat/Km [17]: 450 ± 66.7 M⁻¹ s⁻¹

B3: recombinant S. aureus GS (Staphylococcus aureus) (protein)
chain: MPKRTFTKDDIRKFAEEENVRYLRLQFTDILGTIKNVEVPVSQLEKVLDNEMMFDGSSIEGFVRIEESDMYLHPDLDTWVIFPWTAGQGKVARLICDVYKTDGTPFEGDPRANLKRVLKEMEDLGFTDFNLGPEPEFFLFKLDEKGEPTLELNDDGGYFDLAPTDLGENCRRDIVLELEDMGFDIEASHHEVAPGQHEIDFKYADAVTACDNIQTFKLVVKTIARKHNLHATFMPKPLFGVNGSGMHFNVSLFKGKENAFFDPNTEMGLTETAYQFTAGVLKNARGFTAVCNPLVNSYKRLVPGYEAPCYIAWSGKNRSPLIRVPSSRGLSTRIEVRSVDPAANPYMALAAILEAGLDGIKNKLKVPEPVNQNIYEMNREEREAVGIQDLPSTLYTALKAMRENEVIKKALGNHIYNQFINSKSIEWDYYRTQVSEWERDQYMKQY
Km [18]: 1.8 ± 0.1 mM
kcat [18]: 12 s⁻¹
kcat/Km [18]: 6670 M⁻¹ s⁻¹

B4: recombinant E. coli GS (Escherichia coli K-12) (protein)
chain: MSAEHVLTMLNEHEVKFVDLRFTDTKGKEQHVTIPAHQVNAEFFEEGKMFDGSSIGGWKGINESDMVLMPDASTAVIDPFFADSTLIIRCDILEPGTLQGYDRDPRSIAKRAEDYLRSTGIADTVLFGPEPEFFLFDDIRFGSSISGSHVAIDDIEGAWNSSTQYEGGNKGHRPAVKGGYFPVPPVDSAQDIRSEMCLVMEQMGLVVEAHHHEVATAGQNEVATRFNTMTKKADEIQIYKYVVHNVAHRFGKTATFMPKPMFGDNGSGMHCHMSLSKNGVNLFAGDKYAGLSEQALYYIGGVIKHAKAINALANPTTNSYKRLVPGYEAPVMLAYSARNRSASIRIPVVSSPKARRIEVRFPDPAANPYLCFAALLMAGLDGIKNKIHPGEAMDKNLYDLPPEEAKEIPQVAGSLEEALNELDLDREFLKAGGVFTDEAIDAYIALRREEDDRVRMTPHPVEFELYYSV
Km [18]: 0.7 ± 0.1 ^a mM
kcat [18]: 122 s⁻¹
kcat/Km [18]: 173000 M⁻¹ s⁻¹
